Entries after “also recorded” stand apart in the source; their conditions may differ.
Columns and labels:
[1] = Preliminary in vivo metabolism study; settings: Supplemental Figure 2
TrkA receptor = TrkA receptor (Mus musculus, UniProt Q3UFB7); test: TrkA activation in mouse brain after chronic oral treatment; format: in vivo, mice; settings: 5 mg/kg oral, anti-p-TrkA 794
male C57BL/6J mice [2] = test: Locomotor activity assay; format: in vivo
male C57BL/6J mice [3] = test: Forced swim test; format: in vivo; settings: for immobility in forced swim test: 5 mg/kg oral once a day for 21 days
TrkB [4] = molecular target: TrkB (Rattus norvegicus, UniProt Q63604); test: TrkB activation in primary cortical cultures; format: cell-based; settings: 500 nM, 15 min; for TrkB activation (agonistic activity): primary cortical cultures from E17 rat embryos, p-TrkB immunoblotting (Figure 2B); for TrkB and Akt activation in primary neurons: rat primary neurons, immunoblotting and p-Akt ELISA (Figure 4B)
TrkB (Rattus norvegicus, UniProt Q63604), sequence (Q63604 32-821): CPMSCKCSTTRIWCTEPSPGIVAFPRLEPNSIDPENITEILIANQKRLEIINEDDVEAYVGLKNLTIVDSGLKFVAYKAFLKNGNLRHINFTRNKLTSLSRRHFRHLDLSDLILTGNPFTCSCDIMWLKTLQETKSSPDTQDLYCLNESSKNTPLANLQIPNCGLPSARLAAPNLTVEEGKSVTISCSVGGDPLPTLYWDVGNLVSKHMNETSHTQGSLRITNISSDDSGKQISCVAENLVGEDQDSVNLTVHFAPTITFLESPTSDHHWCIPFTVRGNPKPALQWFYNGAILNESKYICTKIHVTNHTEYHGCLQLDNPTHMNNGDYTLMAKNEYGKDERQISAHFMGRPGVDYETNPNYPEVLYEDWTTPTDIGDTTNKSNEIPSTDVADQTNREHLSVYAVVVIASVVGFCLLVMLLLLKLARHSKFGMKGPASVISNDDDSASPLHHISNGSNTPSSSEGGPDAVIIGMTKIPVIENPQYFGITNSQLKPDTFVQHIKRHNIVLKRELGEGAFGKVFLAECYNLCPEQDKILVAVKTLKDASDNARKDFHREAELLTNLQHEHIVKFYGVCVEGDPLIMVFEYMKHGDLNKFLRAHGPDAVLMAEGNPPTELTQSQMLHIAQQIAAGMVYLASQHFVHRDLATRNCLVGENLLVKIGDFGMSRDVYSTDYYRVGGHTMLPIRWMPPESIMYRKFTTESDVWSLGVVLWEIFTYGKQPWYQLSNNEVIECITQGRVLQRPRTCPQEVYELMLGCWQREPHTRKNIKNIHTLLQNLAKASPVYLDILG

p-Akt and p-MAPK = test: Downstream p-Akt and p-MAPK signaling in mouse brain; format: in vivo, C57 BL/6J mice; settings: hippocampus; for downstream p-Akt and p-MAPK signalings: 1 mg/kg oral, 4 h; for downstream p-Akt activity: 2.5 mg/kg oral, 3 weeks
TrkB [5] = molecular target: T1, TrkB (Mus musculus, UniProt P15209); test: TrkB activation in mouse brain after single oral administration; format: in vivo, C57 BL/6J mice; settings: 1 mg/kg oral; for TrkB activation in mouse brain: hippocampus
T1 sequence (P15209 32-821): as the sequence (Q63604 32-821) above, with M3T, T9S, T10A, I32V, K63R, G84S, T153M, I185L, T394S, N770S counted along it

HepG2 cells = test: Comet assay; format: cell-based, human; settings: 100 μM, 24 h
TrkB [6] = molecular target: T1, TrkB; test: TrkB activation in mouse brain after chronic oral treatment; format: in vivo, C57 BL/6J mice; settings: for TrkB phosphorylation in cortex and hippocampus: 5 mg/kg oral, vs vehicle; for TrkB phosphorylation in cortex and hippocampus / TrkB activation in brain tissues (anti-p-TrkB Y816 and Y706 immunoblotting): 3 weeks; for TrkB activation in brain tissues (anti-p-TrkB Y816 and Y706 immunoblotting) / TrkB phosphorylation in hippocampus (immunohistochemistry, anti-p-TrkB 816): 2.5 mg/kg oral; for TrkB activation in brain tissues (anti-p-TrkB Y816 and Y706 immunoblotting): after behavioral tests; for TrkB phosphorylation in hippocampus (immunohistochemistry, anti-p-TrkB 816): chronic, brain sections
hERG = hERG (Homo sapiens, UniProt Q12809); test: hERG inhibition assay; format: in vitro ADME
hERG, sequence (Q12809 whole entry): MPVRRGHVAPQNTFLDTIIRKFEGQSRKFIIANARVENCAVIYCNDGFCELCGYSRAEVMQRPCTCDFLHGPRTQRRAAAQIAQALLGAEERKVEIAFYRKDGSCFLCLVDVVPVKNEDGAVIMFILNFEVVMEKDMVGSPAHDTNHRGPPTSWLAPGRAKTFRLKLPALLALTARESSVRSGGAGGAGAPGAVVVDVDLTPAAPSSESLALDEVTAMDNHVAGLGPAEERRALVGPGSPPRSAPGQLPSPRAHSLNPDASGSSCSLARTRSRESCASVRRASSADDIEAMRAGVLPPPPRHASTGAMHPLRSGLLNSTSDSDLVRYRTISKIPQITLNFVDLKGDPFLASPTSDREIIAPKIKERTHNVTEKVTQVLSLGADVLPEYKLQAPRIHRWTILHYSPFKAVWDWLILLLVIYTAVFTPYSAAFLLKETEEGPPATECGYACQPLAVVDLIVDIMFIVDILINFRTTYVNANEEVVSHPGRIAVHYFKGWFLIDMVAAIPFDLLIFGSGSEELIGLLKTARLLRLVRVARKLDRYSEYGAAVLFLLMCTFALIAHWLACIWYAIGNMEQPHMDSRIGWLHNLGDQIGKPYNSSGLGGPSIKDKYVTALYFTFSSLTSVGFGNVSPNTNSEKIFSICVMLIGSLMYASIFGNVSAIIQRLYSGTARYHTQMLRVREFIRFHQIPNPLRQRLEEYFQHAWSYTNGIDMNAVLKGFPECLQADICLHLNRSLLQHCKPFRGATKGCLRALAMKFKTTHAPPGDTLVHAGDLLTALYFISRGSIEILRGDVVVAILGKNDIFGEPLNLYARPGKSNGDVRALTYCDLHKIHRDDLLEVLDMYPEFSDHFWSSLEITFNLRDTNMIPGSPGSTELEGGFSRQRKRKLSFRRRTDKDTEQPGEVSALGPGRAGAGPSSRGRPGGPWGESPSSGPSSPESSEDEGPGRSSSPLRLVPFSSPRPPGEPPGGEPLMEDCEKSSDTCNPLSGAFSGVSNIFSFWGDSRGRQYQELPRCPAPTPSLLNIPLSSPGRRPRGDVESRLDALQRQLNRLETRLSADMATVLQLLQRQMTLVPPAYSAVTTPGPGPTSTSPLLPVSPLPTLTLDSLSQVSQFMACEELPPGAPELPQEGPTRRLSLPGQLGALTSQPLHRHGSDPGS

[7] = Human plasma protein binding; format: in vitro ADME; settings: 5 μM
[8] = Reactive metabolite screening; format: in vitro ADME; settings: reactive metabolic screening
[9] = In vivo pharmacokinetic studies in mice
male C57BL/6J mice [10] = test: Tail suspension test; format: in vivo; settings: 2.5 mg/kg oral once a day for 3 weeks
P-Akt S473 = P-Akt S473 ELISA in drug-treated mouse brain; format: in vivo, C57 BL/6J mice; settings: 1 mg/kg oral, time course
[11] = 5 mg/kg oral for 21 days, tested at day 22
[12] = 2.5 mg/kg oral once a day for 3 weeks

TrkA receptor, sequence (Q3UFB7 34-799): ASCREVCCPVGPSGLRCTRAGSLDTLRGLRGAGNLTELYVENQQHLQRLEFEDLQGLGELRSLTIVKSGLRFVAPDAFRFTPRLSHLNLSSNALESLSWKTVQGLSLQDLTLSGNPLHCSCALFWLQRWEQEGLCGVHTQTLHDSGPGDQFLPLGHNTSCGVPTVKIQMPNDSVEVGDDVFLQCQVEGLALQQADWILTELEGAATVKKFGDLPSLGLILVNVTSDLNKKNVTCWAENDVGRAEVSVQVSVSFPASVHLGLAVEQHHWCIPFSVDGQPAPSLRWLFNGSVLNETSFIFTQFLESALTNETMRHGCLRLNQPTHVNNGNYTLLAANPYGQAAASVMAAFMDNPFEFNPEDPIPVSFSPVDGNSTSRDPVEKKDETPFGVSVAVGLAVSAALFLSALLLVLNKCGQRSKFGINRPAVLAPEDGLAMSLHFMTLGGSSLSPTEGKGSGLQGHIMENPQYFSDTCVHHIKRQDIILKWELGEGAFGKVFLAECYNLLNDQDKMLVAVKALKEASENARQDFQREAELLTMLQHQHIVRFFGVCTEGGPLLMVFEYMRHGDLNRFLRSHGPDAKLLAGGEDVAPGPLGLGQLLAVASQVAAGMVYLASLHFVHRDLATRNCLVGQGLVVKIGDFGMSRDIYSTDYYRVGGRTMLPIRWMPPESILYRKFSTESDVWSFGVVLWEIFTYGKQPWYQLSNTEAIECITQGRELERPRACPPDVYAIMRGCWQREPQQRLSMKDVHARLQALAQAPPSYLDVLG

In the case of O=c1cc(-c2ccccc2)oc2c(O)c(O)ccc12 [7,8-DHF, 7,8-dihydroxyflavone], the “in vivo metabolic pathways” value [1] is reported as “subjected to oxidation, glucuronidation, sulfation and methylation”.

For CN(C)c1ccc(-c2cc(=O)c3ccc4nc[nH]c4c3o2)cc1 [compound 11, 8-(4′-(Dimethylamino)phenyl)chromeno[7,8-d]imidazol-6(1H)-one], the “TrkA activation in mouse brain” value (TrkA receptor) was “TrkB but not TrkA is activated”, the locomotor activity (male C57BL/6J mice [2]; [11]) was “substantially augmented locomoter activity; also recorded: significantly increased the locomotor activity” and the “immobility in forced swim test” value (male C57BL/6J mice [3]) was “significantly reduced the immobility”. The “TrkB activation (agonistic activity)” value (TrkB [4]) was “stronger effect in triggering TrkB activation than the lead compound”, the “downstream p-Akt and p-MAPK signalings” value (p-Akt and p-MAPK) was “activated” and the “TrkB activation in mouse brain” value (TrkB [5]; 4 h) was “robustly activated TrkB; also recorded: strongest TrkB stimulatory effect”. The “time at which TrkB activation faded away” value (TrkB [5]; time course) was 16 h, the “time of peak TrkB activation in mouse brain” value (TrkB [5]; time course) was 4 h and the “DNA lesions (Comet assay)” value (HepG2 cells) was “induced DNA lesions”. For the same compound, the “TrkB phosphorylation in cortex and hippocampus” value (TrkB [6]) was “clearly escalated TrkB phosphorylation”.

For Cc1nc2ccc3c(=O)cc(-c4ccc(N5CCCC5)cc4)oc3c2[nH]1 [compound 13, 2-methyl-8-(4-(pyrrolidin-1-yl)phenyl)chromeno[7,8-d]imidazol-6(1H)-one], the hERG inhibition (hERG) was “did not possess any concentration-dependent inhibition activity of hERG; also recorded: trifling”, the Binding classification [7] was “High Binding” and the locomotor activity (male C57BL/6J mice [2]; [12]) was “neither compound 13 nor 23 altered the motion activity”. For the same compound, the “adduct formation (Comment)” value [8] was “quite stable in vitro; also recorded: No adduct detected”, the ACINF ([9]; PO, 10 mg/kg) was 1293 ng·min/mL and the “TrkB and Akt activation in primary neurons” value (TrkB [4]) was “higher activity than compound 11 in triggering TrkB and Akt activation”. For the same compound, the “downstream p-Akt activity” value (p-Akt and p-MAPK) was “upregulated”, the “TrkB activation in mouse brain” value (TrkB [5]; 2 h) was “triggers TrkB activation in mouse brain” and the “immobility in tail suspension test” value (male C57BL/6J mice [10]) was “significantly reducing the immobility”. The “TrkB activation in brain tissues (anti-p-TrkB Y816 and Y706 immunoblotting)” value (TrkB [6]) was “markedly activated TrkB” and the “TrkB phosphorylation in hippocampus (immunohistochemistry, anti-p-TrkB 816)” value (TrkB [6]) was “elevated TrkB phosphorylation in hippocampus”.

In the case of O=c1cc(-c2ccc(N3CCCC3)cc2)oc2c1ccc1cc[nH]c12 [compound 23, 2-(4-(Pyrrolidin-1-yl)phenyl)pyrano[3,2-g]indol-4(9H)-one], the Binding classification [7] is reported as “High Binding”, the locomotor activity (male C57BL/6J mice [2]; [12]) is reported as “neither compound 13 nor 23 altered the motion activity” and the “adduct formation (Comment)” value [8] is reported as “formed numerous adducts”. For the same compound, the “reduction of immobility in FST compared to vehicle control” value (male C57BL/6J mice [3]; 2.5 mg/kg oral gavage once a day for 3 weeks) was “had no effect”, the “TrkB and Akt activation in primary neurons” value (TrkB [4]) was “higher activity than compound 11 in triggering TrkB and Akt activation” and the “downstream p-Akt activity” value (p-Akt and p-MAPK) was “upregulated”. For the same compound, the “immobility in tail suspension test” value (male C57BL/6J mice [10]) was “lacked efficacy”, the “TrkB activation in brain tissues (anti-p-TrkB Y816 and Y706 immunoblotting)” value (TrkB [6]) was “markedly activated TrkB” and the “TrkB phosphorylation in hippocampus (immunohistochemistry, anti-p-TrkB 816)” value (TrkB [6]) was “elevated TrkB phosphorylation in hippocampus”.

For CN(C)c1ccc(-c2cc(=O)c3ccc(O)c(O)c3o2)cc1 [compound 24, 4′-dimethylamino-7,8-dihydroxyflavone], the Bioavailability ([9]; PO, 5 mg/kg) was “not measurable”, the AUC(0-t) ([9]; mouse, plasma, iv, 1 mg/kg, AUClast) was about 98.8 ng·h/mL and the half-life ([9]; mouse, plasma, iv, 1 mg/kg, T1/2, IV) was about 9 min. The “downstream p-Akt and p-MAPK signalings” value (p-Akt and p-MAPK) was “activated” and the “TrkB activation in mouse brain” value (TrkB [5]; 4 h) was “clearly activated the TrkB receptor; also recorded: strongest TrkB stimulatory effect”.

For O=c1cc(-c2ccc(F)cc2)[nH]c2c(O)c(O)ccc12 [compound 25], the “TrkB activation (agonistic activity)” value (TrkB [4]) was “diminished agonistic activity”.

For O=c1cc(-c2ccccc2)[nH]c2c(O)c(O)ccc12 [compound 26], the “TrkB activation (agonistic activity)” value (TrkB [4]) was “diminished agonistic activity”.

For CN(C)c1cccc(-c2cc(=O)c3ccc(O)c(O)c3o2)c1 [compound 28, 3′-dimethylamino-7,8-DHF], the “TrkB activation (agonistic activity)” value (TrkB [4]) was “comparable activity as the lead compound 24”.

With O=c1cc(-c2ccc(N3CCOCC3)cc2)oc2c(O)c(O)ccc12 [compound 29, 4′-morpholino-7,8-DHF] the “TrkB activation (agonistic activity)” value (TrkB [4]) was “comparable activity as the lead compound 24”.

In the case of O=c1cc(-c2ccc(F)cc2)oc2c(O)c(O)ccc12 [compound 30], the “TrkB activation (agonistic activity)” value (TrkB [4]) is reported as “inhibited its activity”.

In the case of O=c1c(F)c(-c2cccc(O)c2)oc2c(O)c(O)ccc12 [compound 32], the “TrkA activation in mouse brain” value (TrkA receptor) is reported as “TrkB but not TrkA is activated”, the locomotor activity (male C57BL/6J mice [2]; [11]) is reported as “but not 32 significantly increased the locomotor activity” and the “immobility in forced swim test” value (male C57BL/6J mice [3]) is reported as “significantly reduced the immobility”. For the same compound, the “TrkB activation (agonistic activity)” value (TrkB [4]) was “did not significantly affect 7,8-DHF’s TrkB agonistic activity; also recorded: barely affects TrkB stimulatory activity”, the “time of peak TrkB activation in mouse brain” value (TrkB [5]; time course) was 1 to 2 h and the “TrkB activation in mouse brain (time course comparison)” value (TrkB [5]; various time points) was “less effect on TrkB activation than compound 11”. The “time at which p-Akt returned to the baseline” value (P-Akt S473) was 8 h, the “time of peak p-Akt activation (ELISA)” value (P-Akt S473; 20 μg brain lysates) was 1 h and the “TrkB phosphorylation in cortex and hippocampus” value (TrkB [6]) was “clearly escalated TrkB phosphorylation”.

In the case of O=c1cc(-c2ccccc2)oc2c(O)c(O)cc(F)c12 [compound 33], the “TrkB activation (agonistic activity)” value (TrkB [4]) is reported as “did not significantly affect 7,8-DHF’s TrkB agonistic activity”.

With O=c1c(F)c(-c2ccccc2)oc2c(O)c(O)ccc12 [compound 34] the “TrkB activation (agonistic activity)” value (TrkB [4]) was “did not significantly affect 7,8-DHF’s TrkB agonistic activity”.

For CN(C)c1ccc(-c2cc(=O)c3c(F)cc(O)c(O)c3o2)cc1 [compound 35], the “TrkB activation (agonistic activity)” value (TrkB [4]) was “did not significantly affect 7,8-DHF’s TrkB agonistic activity”.

Reference: article PMC3491656 (Journal of medicinal chemistry, 2012)
